Earlier results, collected in PMC4408927 (Nature, 2015).

How the values were obtained:
[1] = not given; remark: listed apart in the source

In the case of `CC(C)(C)c1ccccc1Oc1ncccc1NC(=O)Nc1ccc(OC(F)(F)F)cc1` [BPTU, 1-(2-(2-(tert-butyl)phenoxy)pyridin-3-yl)-3-(4-(trifluoromethoxy)phenyl)urea], the Platelet aggregation (platelet aggregation) is listed as “substantially reduces” and the Effect on bleeding is listed as “minimal effect”.
For `CNc1nc(I)nc2c1ncn2[C@H]1C[C@H](OP(=O)(O)O)[C@]2(COP(=O)(O)O)C[C@H]12` [MRS2500, (1′R,2′S,4′S,5′S)-4-(2-Iodo-6-methylaminopurin-9-yl)-1-[(phosphato)methyl]-2(phosphato)bicycle[3.1.0]-hexane], the Arterial thrombosis [1] is listed as “effectively reduces”, the ADP-induced platelet aggregation (platelet aggregation) is listed as “completely blocks” and the Bleeding time is listed as “moderate prolongation”.
